From patent US20060183888A1 (priority 2004, published 2006)

Experiments:
NMR H/D exchange studies = format: physicochemical
Description: Compound 7 (˜4 mg, ˜10 μmol) was dissolved in CD3OD (0.75 mL), and D2O (2 drops) was added. The reaction mixture was kept at rt and monitored by NMR (400 MHz). […] NaOD (30% w/w in D2O, 2 drops) was then added, and the solution monitored by NMR. […] After 25 h, the C5 proton peak completely disappeared.
To rule out the possibility that the loss of the C5 proton peak was due to decomposition, the resulting mixture was evaporated at rt under reduce pressure, and the residue was redissolved in CH3OH and allowed to stir for 1 day. The mixture was then evaporated to dryness in vacuo, and redissolved in CD3OD. The NMR spectrum was quickly taken, and the C5 proton peak was again observed. As before, the C5 proton peak slowly disappeared over a 1-day period.
To evaluate the importance of the imine bond on the acidity of the C5 proton, proline was dissolved in 0.75 mL CD3OD and 0.20 mL D2O and treated with […].

His6-PylS = target: T1, His6-PylS (Methanosarcina barkeri, UniProt Q6WRH6); assay: Gel-shift aminoacylation assay with N-terminally His-tagged PylS; format: biochemical
T1 construct: His6 (hexahistidine) (N); made in house
T1 sequence (Q6WRH6 whole entry): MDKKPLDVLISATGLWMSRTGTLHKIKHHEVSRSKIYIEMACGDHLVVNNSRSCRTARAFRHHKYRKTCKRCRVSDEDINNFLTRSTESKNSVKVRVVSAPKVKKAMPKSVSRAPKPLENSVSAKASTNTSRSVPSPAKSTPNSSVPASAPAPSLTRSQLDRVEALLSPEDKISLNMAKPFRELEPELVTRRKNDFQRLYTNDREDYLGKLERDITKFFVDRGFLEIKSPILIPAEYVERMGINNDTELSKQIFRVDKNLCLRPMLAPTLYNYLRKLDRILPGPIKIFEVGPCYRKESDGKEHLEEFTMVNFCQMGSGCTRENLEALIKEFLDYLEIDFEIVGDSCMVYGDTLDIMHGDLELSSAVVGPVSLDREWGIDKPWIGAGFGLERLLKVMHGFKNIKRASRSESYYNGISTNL
Description: (§1) The reaction was terminated after 5-30 min at 37° C. with an equal volume of 0.3 M sodium acetate, 8 M urea pH 5.0. Charged and uncharged tRNA were separated by acid-urea acrylamide gel electrophoresis, blotted to nitrocellulose and probed with a 5μ ^32P-end-labelled, 72-base oligonucleotide complementary to tRNACUA. Radioactivity was analysed with a STORM Phosphorimager (Amersham Biosciences).
Aminoacylation assay in acid-urea gels. […] Following incubation at 37° C. for 5 to 30 minutes, the reaction was terminated by addition of an equal volume of 2× loading dye (0.3 M sodium acetate, 8 M urea, pH 5.0) and charged and uncharged tRNA species analysed by acid-urea acrylamide gel electrophoresis following the methods outlined in Jester et al. Samples were electrophoresed in 14% polyacrylamide gels buffered with a 0.3 M sodium acetate-7 M urea solution, pH 5.0, at 50 volts and 4° C. for 24 hours. The same buffer without urea was used in the electrode chambers, and was replaced with fresh buffer every 6-8 hours. Finished gels were transblotted for 2 hours at 40 volts in 4° C. in a blotting solution of 10 mM Tris-acetate, 5 mM sodium acetate, and 0.5 mM EDTA, pH 8.0. […] Radioactivity on the blot was imaged and analyzed using a STORM Phosphorimager (Amersham Biosciences).

PylS-His6 [1] = target: T2, PylS-His6 (Methanosarcina barkeri, UniProt Q6WRH6)
T2 sequence (Q6WRH6 whole entry): as above
Description: The pyrophosphate exchange reaction was essentially performed following the method of Cole and Schimmel. All reactions were performed in duplicate at 37° C. The 100 to 200 μl reactions contained (unless noted) 0.3 to […] PylSHis6. […] The specific activity of the radiolabel was adjusted from 4 to 10 dpm/pmol). The concentration of protein was 0.3 to 1 μM. At specific times, 25 μl aliquots were removed and quenched in 500 μl of a stop solution containing 1.6% (w/v) activated acid-washed charcoal (Sigma Chemical Co., St. Louis, Mo.), 80 mM sodium tetrapyrophosphate, and 3.5% (v/v) perchloric acid. Samples were filtered through Whatman GF/C glass-fiber filters and then the filter was washed three times with 5 ml of 40 mM sodium tetrasodium pyrophosphate solution containing 1.7% perchloric acid (v/v) and once with 5 ml 100% ethanol. Filters were dried at 80° C. for 5 minutes then placed in 20 ml scintillation vials containing 10 ml of Ultima Gold F scintillation cocktail (PerkinElmer), shaken once, and counted in a liquid scintillation analyzer. Identical reactions without amino acid, ATP, or enzyme were also set up as negative controls in duplicate. […] One substrate was kept constant at a concentration higher than its respective apparent Km value.

[2] = tested on: E. coli BL21 (DE3) expressing pylT, pylS and mtmB1; assay: Pyrrolysine-dependent amber suppression (mtmB1 UAG readthrough, anti-MtmB immunoblot); format: cell-based; settings: 1 mM in the medium, induced 4 h
Description: To test for amber suppression, overnight cultures were grown in Luria-Bertani broth (3 ml) with 100 μg ml^−1 ampicillin. Subsequently, 200 μl was inoculated into 1 ml fresh medium and grown to a D600 of 0.6. […] The mtmB1 gene products in equivalent amounts of lysates were then analysed by immunoblotting of a SDS 12.5% polyacrylamide gel with affinity-purified rabbit anti-MtmB antibody^6. The Rainbow Molecular Weight markers (Amersham Biosciences) were used.
To test for amber suppression, overnight cultures of a strain bearing one of the plasmids were grown in LB broth (3 mL) with 100 ug/ml final ampicillin. Subsequently, 200 μl of each culture was inoculated into 1 ml of fresh LB medium with ampicillin, and grown to an A600 of approximately 0.6. […] The cultures were then centrifuged for 1 minute 16,000×g, and the cell pellets lysed in 125 mM Tris HCl, 4.6% SDS, 20% glycerol and 10% (v/v) β-mercaptoethanol, pH 6.8, at 90 degrees for 10 minutes.
Extracts were electrophoresed in a 12.5% SDS-PAGE gel, then electroblotted overnight at 150 mA onto PVDF membrane (Bio-Rad Labs, Hercules, Calif.). The membrane was then incubated for 1 hour at room temperature with Western Breeze blocking solution (Invitrogen). […]

[3] = tested on: E. coli BW25141(DE3) with pylT, pylS and UAG-mutant uidA; format: cell-based
Excerpt: In order to avoid interference by the residue uidA gene, we employed a strain with most ofuidA deleted, E. coli BW25141(DE3). This strain was transformed with pDLGUS, a variant of the pEC03 plasmid in which the mtmB1 gene was removed and the uidA gene introduced in its place.

[4] = Stability studies to NaOH, LiOH, TFA (TLC); format: physicochemical
Description: Stability Studies of Compound (8) to NaOH. NaOH (6 M, 20 μL, 0.12 mmol) was added to a solution of compound 8 (0.15 M, 100 μL, 0.015 mmol). The resulting mixture was allowed to react at rt over 3 days, during which the degradation of compound 8 was monitored by a ninhydrin TLC assay (CHCl3—MeOH—NH4OH(aq)=2:2:1).
Stability Studies of Compound (8) to LiOH. Compound 8 (21.9 mg, 84 μmol) was dissolved in water (2 mL) and LiOH-H2O (84.5 mg, 2.0 mmol) was added. This mixture was allowed to react at rt. […] After 5 days, the solution was evaporated to dryness at rt, redissolved in MeOH (0.5 mL), and purified on chromatography silica gel.
Stability Studies of Compound (8) to TFA. Compound 8 (21.7 mg, 0.083 mmol) was dissolved in MeOH (2 mL) and TFA (200 μL) was added. […] The mixture was allowed to react to completion for 2 days at rt. The resulting mixture was evaporated to dryness, dissolved in MeOH (0.5 mL), and subjected to chromatography on silica gel.

PylS-His6 [5] = target: T2, PylS-His6; assay: Aminoacylation of tRNACUA, acid-urea gel shift and northern blot; format: biochemical; set-up: made in house; host or cells: E. coli BL21 (DE3)
Description: as §1
Aminoacylation assay in acid-urea gels. […] Following incubation at 37° C. for 5 to 30 minutes, the reaction was terminated by addition of an equal volume of 2× loading dye (0.3 M sodium acetate, 8 M urea, pH 5.0) and charged and uncharged tRNA species analysed by acid-urea acrylamide gel electrophoresis following the methods outlined in Jester et al. Samples were electrophoresed in 14% polyacrylamide gels buffered with a 0.3 M sodium acetate-7 M urea solution, pH 5.0, at 50 volts and 4° C. for 24 hours. The same buffer without urea was used in the electrode chambers, and was replaced with fresh buffer every 6-8 hours. Finished gels were transblotted for 2 hours at 40 volts in 4° C. in a blotting solution of 10 mM Tris-acetate, 5 mM sodium acetate, and 0.5 mM EDTA, pH 8.0. The blot was then cross-linked by ultraviolet radiation (15000 μJ/cm2 per side) then prehybrized in 0.25 M sodium phosphate buffer, pH 7.2, and 5.7% SDS for at least 30 minutes. In order to detect charged and uncharged tRNACUA a 72 base oligonucleotide complementary to full length of tRNACUA was labeled with γ-^32P ATP and polynucleotide kinase. The probe was hybridized with the blot overnight at room temperature, then agitated at 22° C. for 5 minute in 10 mM sodium citrate, 150 mM NaCl, 1% SDS, pH 7.0, then agitated with two changes of 5 mM sodium citrate, 75 mM sodium chloride, 1% SDS, pH 7.0, for 5 minutes each. Radioactivity on the blot was imaged and analyzed using a STORM Phosphorimager (Amersham Biosciences).

In the case of COC(=O)[C@H](CCCCNC(=O)[C@@H]1N=CC[C@H]1C)NC(=O)C(F)(F)F [Compound 7, Nα-Trifluoroacetyl-L-pyrrolysine methyl ester], the “change in NMR” value (NMR H/D exchange studies; CD3OD with D2O, rt, 3-day period) is reported as “No change was observed” and the “time to complete disappearance of the C5 proton peak (H/D exchange)” value (NMR H/D exchange studies; NaOD added, CD3OD/D2O) is reported as 25 h.
With O=C(O)[C@@H]1CCCN1 [proline, reference compound] the “H/D exchange of protons on ring carbons” value (NMR H/D exchange studies; CD3OD/D2O with base, rt, 1 day) was “No evidence for H/D exchange”.
For C[C@@H]1CC=N[C@H]1C(=O)NCCCC[C@H](N)C(=O)O [pyrrolysine, L-pyrrolysine], the tRNA synthetase activity (His6-PylS) was “does have pyrrolysyl-tRNA synthetase activity”, the “apparent Vmax” value (PylS-His6 [1]; exchange reaction) was 120 nmol min^−1 per mg PylS and the “UAG readthrough of mtmB1 (50-kDa MtmB)” value [2] was “large amounts of 50-kDa MtmB”. The “increase of beta-glucuronidase activity” value ([3]; 1 mM synthetic pyrrolysine versus absence of pyrrolysine) was “approximately 100 fold”, the beta-glucuronidase activity ([3]; induced with IPTG, 1 mM synthetic pyrrolysine) was 4. umol/min·mg protein and the “conversion under acidic conditions” value ([4]; acidic conditions) was “converted to its enamine form”. The “aminoacylation of tRNAIYS in the M. acetivorans tRNA pool” value (PylS-His6 [5]) was “does not aminoacylate”, the “maximal conversion of deacylated tRNACUA to charged species” value (PylS-His6 [5]; deacylated M. acetivorans cellular tRNA pool, with ATP and PylS-His6) was 50% and the “maximum of tRNACUA transcribed in vitro aminoacylated” value (PylS-His6 [5]; in vitro transcribed tRNACUA) was 43%.
With C[C@@H]1CC=N[C@H]1C(=O)NCCCC[C@H](N)C(=O)[O-].[Li+] [Compound 8, L-Pyrrolysine lithium salt] the “degradation by LiOH (TLC)” value ([4]; LiOH in water, rt, after 24 h) was “two new bands”, the “degradation by NaOH (ninhydrin TLC)” value ([4]; NaOH, rt, over 3 days) was “One new band” and the “degradation by TFA (TLC)” value ([4]; TFA in MeOH, after 1 h, complete in 2 days at rt) was “one new band”.
In the case of NCCCC[C@H](N)C(=O)O [lysine, reference compound], the tRNA synthetase activity (His6-PylS) is reported as “no lysyl-tRNA synthetase activity was detectable”, the “isotopic exchange into ATP above background” value (PylS-His6 [1]; 1 mM, up to 30 min) is reported as “no detectable isotopic exchange” and the “UAG readthrough of mtmB1 (50-kDa MtmB)” value [2] is reported as “could not be replaced”. For the same compound, the “aminoacylation of tRNAIYS in the M. acetivorans tRNA pool” value (PylS-His6 [5]) was “does not aminoacylate” and the “formation of charged tRNACUA species” value (PylS-His6 [5]; amino acids at 50 μM, cellular tRNA pool) was “not formed”.
Nc1ncnc2c1ncn2[C@@H]1O[C@H](COP(=O)(O)OP(=O)(O)OP(=O)(O)O)[C@@H](O)[C@H]1O [ATP] gave a Km (PylS-His6 [1]; read-out: apparent Km, 37° C., pH 7.2) of 2 µM.
